# Measured values taken from patent US10294202B2, “Pyrrolidinones as herbicides” (FMC Corporation, priority 2013, dated 2019).
# Assays:
# johnsongrass = assay: Test C pre-/postemergence herbicide test; assay type: in vivo, Sorghum halepense; conditions: Preemergence; for Plant response rating (scale of 0 to 100), Johnsongrass: 250 g ai/ha
# From the text: (§1) Seeds of plant species selected from blackgrass (Alopecurus myosuroides), ryegrass, Italian (Italian ryegrass, Lolium multiflorum), wheat (winter wheat, Triticum aestivum), galium (catchweed bedstraw, Galium aparine), corn (Zea mays), crabgrass, large (large crabgrass, Digitaria sanguinalis), foxtail, giant (giant foxtail, Setaria faberii), johnsongrass (Sorghum halepense), lambsquarters (Chenopodium album), morningglory (Ipomoea coccinea), nutsedge, yellow (yellow nutsedge, Cyperus esculentus), pigweed (Amaranthus retroflexus), ragweed (common ragweed, Ambrosia elatior), soybean (Glycine max), barnyardgrass (Echinochloa crus-galli), oilseed rape (Brassica napus), waterhemp (common waterhemp, Amaranthus rudis), kochia (Kochia scoparia), oat, wild (wild oat, Avena fatua), surinam grass (Brachiaria decumbens), foxtail, green (green foxtail, Setaria viridis), goosegrass (Eleusine indica), bromegrass, downy (downy bromegrass, Bromus tectorum), nightshade (eastern black nightshade, Solanum ptycanthum), cocklebur (common cocklebur, Xanthium strumarium), cupgrass, woolly (woolly cupgrass, Eriochloa villosa), bermudagrass (Cynodon dactylon), sunflower, (common oilseed sunflower, Helianthus annuus), Russian thistle (Salsola kali) and velvetleaf (Abutilon theophrasti) were planted into a blend of loam soil and sand and treated preemergence with test chemicals formulated in a non-phytotoxic solvent mixture which included a surfactant. At the same time, plants selected from these crop and weed species and also barley (winter barley, Hordeum vulgare), […]), chickweed (common chickweed, Stellaria media), deadnettle (henbit deadnettle, Lamium amplexicaule), and canarygrass (littleseed canarygrass, Phalaris minor) were planted in pots containing Redi-Earth® planting medium (Scotts Company, 14111 Scottslawn Road, Marysville, Ohio 43041) comprising spaghnum peat moss, vermiculite, wetting agent and starter nutrients and treated with postemergence applications of test chemicals formulated in the same manner. Plants ranged in height from 2 to 18 cm (1- to 4-leaf stage) for postemergence treatments. Treated plants and controls were maintained in a greenhouse for 13 to 15 days, after which time all species were compared to controls and visually evaluated. Plant response ratings, summarized in Table C, are based on a scale of 0 to 100 where 0 is no effect and 100 is complete control. A dash (-) response means no test result.
# corn = assay: Test C pre-/postemergence herbicide test; assay type: in vivo, Zea mays; conditions: Preemergence; for Plant response rating (scale of 0 to 100), Corn: 250 g ai/ha
# From the text: as §1
# soybean = assay: Test C pre-/postemergence herbicide test; assay type: in vivo, Glycine max; conditions: Preemergence; for Plant response rating (scale of 0 to 100), Soybean: 250 g ai/ha
# From the text: as §1
# blackgrass = assay: Test C pre-/postemergence herbicide test; assay type: in vivo, Alopecurus myosuroides; conditions: Preemergence; for Plant response rating (scale of 0 to 100), Blackgrass: 250 g ai/ha
# From the text: as §1
# oilseed rape = assay: Test C pre-/postemergence herbicide test; assay type: in vivo, Brassica napus; conditions: Preemergence; for Plant response rating (scale of 0 to 100), Oilseed Rape: 250 g ai/ha
# From the text: as §1
# galium = assay: Test C pre-/postemergence herbicide test; assay type: in vivo, Galium aparine; conditions: Preemergence; for Plant response rating (scale of 0 to 100), Galium: 250 g ai/ha
# From the text: as §1
# ryegrass, Italian = assay: Test C pre-/postemergence herbicide test; assay type: in vivo, Lolium multiflorum; conditions: Preemergence; for Plant response rating (scale of 0 to 100), Ryegrass, Italian: 250 g ai/ha
# From the text: as §1
# waterhemp = assay: Test C pre-/postemergence herbicide test; assay type: in vivo, Amaranthus rudis; conditions: Preemergence; for Plant response rating (scale of 0 to 100), Waterhemp: 250 g ai/ha
# From the text: as §1
# crabgrass, large = assay: Test C pre-/postemergence herbicide test; assay type: in vivo, Digitaria sanguinalis; conditions: Preemergence; for Plant response rating (scale of 0 to 100), Crabgrass, Large: 250 g ai/ha
# From the text: as §1
# wheat = assay: Test A pre-/postemergence herbicide test; assay type: in vivo, Triticum aestivum
# Procedure, shortened: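 Visual injury ratings, 0 = no effect, 100 = complete control, taken ~10 days after treatment against untreated greenhouse controls. Preemergence: directed soil spray onto seeded loam/sand pots. Postemergence: spray onto plants at one- to two-leaf stage, 2–10 cm tall.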
# ragweed = assay: Test C pre-/postemergence herbicide test; assay type: in vivo, Ambrosia elatior; conditions: Preemergence
# From the text: as §1
# [1] = 31 g ai/ha, scale 0 to 100, 0 is no effect and 100 is complete control
# [2] = 125 g ai/ha, scale 0 to 100 (0 no effect, 100 complete control)
# [3] = Postemergence, 500 g ai/ha, 0 to 100 scale (0 no effect, 100 complete control)
# [4] = 62 g ai/ha, scale 0 to 100 (0 no effect, 100 complete control)
compound,measurement,setting,value
O=C1NCC(c2ccc(F)c(C(F)(F)F)c2)C1C(=O)Nc1cccc(F)c1F (racemic) [Compound 77],Johnsongrass plant response rating,johnsongrass; [1],20
same,"Plant response rating, Johnsongrass","johnsongrass; 62 g ai/ha, scale 0 to 100",55
same,"Plant response rating, Johnsongrass",johnsongrass; [2],75
same,"Plant response rating (scale of 0 to 100), Johnsongrass",johnsongrass,90
same,Corn plant response rating,corn; [1],0
same,"Plant response rating, Corn","corn; 62 g ai/ha, scale 0 to 100",20
same,"Plant response rating, Corn",corn; [2],55
same,"Plant response rating (scale of 0 to 100), Corn",corn,70
same,Soybean plant response rating,soybean; [1],0
same,"Plant response rating, Soybean","soybean; 62 g ai/ha, scale 0 to 100",0
same,"Plant response rating, Soybean",soybean; [2],0
same,"Plant response rating (scale of 0 to 100), Soybean",soybean,0
same,Blackgrass plant response rating,blackgrass; [1],85
same,"Plant response rating, Blackgrass","blackgrass; 62 g ai/ha, scale 0 to 100",85
same,"Plant response rating, Blackgrass",blackgrass; [2],85
same,"Plant response rating (scale of 0 to 100), Blackgrass",blackgrass,95
same,Oilseed Rape plant response rating,oilseed rape; [1],0
same,"Plant response rating, Oilseed Rape","oilseed rape; 62 g ai/ha, scale 0 to 100",30
same,"Plant response rating, Oilseed Rape",oilseed rape; [2],60
same,"Plant response rating (scale of 0 to 100), Oilseed Rape",oilseed rape,85
same,"Plant response rating, Galium","galium; 62 g ai/ha, scale 0 to 100",5
same,"Plant response rating, Galium",galium; [2],80
same,"Plant response rating (scale of 0 to 100), Galium",galium,90
same,"Ryegrass, Italian plant response rating","ryegrass, Italian; [1]",40
same,"Plant response rating, Ryegrass, Italian","ryegrass, Italian; 62 g ai/ha, scale 0 to 100",40
same,"Plant response rating, Ryegrass, Italian","ryegrass, Italian; [2]",40
same,"Plant response rating (scale of 0 to 100), Ryegrass, Italian","ryegrass, Italian",45
same,Waterhemp plant response rating,waterhemp; [1],40
same,"Plant response rating, Waterhemp","waterhemp; 62 g ai/ha, scale 0 to 100",40
same,"Plant response rating, Waterhemp",waterhemp; [2],70
same,"Plant response rating (scale of 0 to 100), Waterhemp",waterhemp,85
same,"Crabgrass, Large plant response rating","crabgrass, large; [1]",95
same,"Plant response rating, Crabgrass, Large","crabgrass, large; 62 g ai/ha, scale 0 to 100",95
same,"Plant response rating, Crabgrass, Large","crabgrass, large; [2]",98
same,"Plant response rating (scale of 0 to 100), Crabgrass, Large","crabgrass, large",98
same,"Plant response rating, Wheat","wheat; Postemergence, 125 g ai/ha, 0 to 100 scale, 0 no effect, 100 complete control",50
same,"Plant response rating, Wheat",wheat; [3],60
same,Wheat plant response rating,"wheat; Preemergence, 125 g ai/ha, visual rating on 0 to 100 scale (0 no effect, 100 complete control)",0
same,"Plant response rating, Wheat","wheat; preemergence, 500 g ai/ha, 0 to 100 scale",30
O=C1NCC(c2cc(F)cc(F)c2)C1C(=O)Nc1ccccc1Cl (racemic) [Compound 280],Johnsongrass plant response rating,johnsongrass; [1],0
same,Johnsongrass plant response rating,johnsongrass; [4],0
same,"Plant response rating, Johnsongrass",johnsongrass; [2],10
same,"Plant response rating (scale of 0 to 100), Johnsongrass",johnsongrass,10
same,Corn plant response rating,corn; [1],0
same,Corn plant response rating,corn; [4],0
same,"Plant response rating, Corn",corn; [2],0
same,"Plant response rating (scale of 0 to 100), Corn",corn,5
same,Soybean plant response rating,soybean; [1],0
same,Soybean plant response rating,soybean; [4],5
same,"Plant response rating, Soybean",soybean; [2],0
same,"Plant response rating (scale of 0 to 100), Soybean",soybean,0
same,Blackgrass plant response rating,blackgrass; [1],0
same,Blackgrass plant response rating,blackgrass; [4],0
same,"Plant response rating, Blackgrass",blackgrass; [2],0
same,"Plant response rating (scale of 0 to 100), Blackgrass",blackgrass,0
same,Oilseed Rape plant response rating,oilseed rape; [1],0
same,Oilseed Rape plant response rating,oilseed rape; [4],30
same,"Plant response rating, Oilseed Rape",oilseed rape; [2],0
same,"Plant response rating (scale of 0 to 100), Oilseed Rape",oilseed rape,0
same,Galium plant response rating,galium; [1],0
same,Galium plant response rating,galium; [4],0
same,"Plant response rating, Galium",galium; [2],0
same,"Plant response rating (scale of 0 to 100), Galium",galium,85
same,"Ryegrass, Italian plant response rating","ryegrass, Italian; [1]",0
same,"Ryegrass, Italian plant response rating","ryegrass, Italian; [4]",0
same,"Plant response rating, Ryegrass, Italian","ryegrass, Italian; [2]",0
same,"Plant response rating (scale of 0 to 100), Ryegrass, Italian","ryegrass, Italian",5
same,Waterhemp plant response rating,waterhemp; [1],0
same,Waterhemp plant response rating,waterhemp; [4],65
same,"Plant response rating, Waterhemp",waterhemp; [2],75
same,"Plant response rating (scale of 0 to 100), Waterhemp",waterhemp,35
same,"Crabgrass, Large plant response rating","crabgrass, large; [1]",85
same,"Crabgrass, Large plant response rating","crabgrass, large; [4]",90
same,"Plant response rating, Crabgrass, Large","crabgrass, large; [2]",95
same,"Plant response rating (scale of 0 to 100), Crabgrass, Large","crabgrass, large",100
same,"Plant response rating, Wheat","wheat; Postemergence, 125 g ai/ha, visual rating on 0 to 100 scale (0 no effect, 100 complete control), approx. 10 days",0
same,"Plant response rating, Wheat",wheat; [3],0
same,Ragweed plant response rating,ragweed; [1],0
same,Ragweed plant response rating,ragweed; [4],0
same,"Plant response rating, Ragweed",ragweed; [2],0
same,"Plant response rating (scale of 0 to 100), Ragweed",ragweed; 250 g ai/ha,60
